PMC3281693 (The Journal of Biological Chemistry, 2011)

Assays:
[1] = biological target: T1, Rpm1-NBARC (Arabidopsis thaliana, UniProt Q39214); conditions: 100 μM ATP, 10 nM protein; MgCl2, pH 7.5
T1 sequence (Q39214 177-519): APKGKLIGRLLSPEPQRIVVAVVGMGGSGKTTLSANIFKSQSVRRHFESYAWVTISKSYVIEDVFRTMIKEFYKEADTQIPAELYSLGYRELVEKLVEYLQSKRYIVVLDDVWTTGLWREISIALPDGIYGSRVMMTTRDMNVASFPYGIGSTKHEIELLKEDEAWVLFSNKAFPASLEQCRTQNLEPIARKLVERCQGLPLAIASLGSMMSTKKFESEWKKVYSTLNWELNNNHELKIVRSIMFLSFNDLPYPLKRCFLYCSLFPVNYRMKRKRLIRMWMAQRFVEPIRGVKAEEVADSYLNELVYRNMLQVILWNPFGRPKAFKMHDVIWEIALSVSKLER

[2] = biological target: the molecule itself; assay: cross-linking

Nc1ncnc2c1ncn2[C@@H]1O[C@H](COP(=O)(O)OP(=O)(O)OP(=O)(O)O)[C@@H](O)[C@H]1O [ATP]
nucleotide phosphatase assay, HPLC [1]: Rpm1-NBARC catalyzed the production of Ado from ATP and ADP

B1: E. coli catabolite-activated protein (CAP) (natural protein, UniProt P0ACJ8 1-210, looked up)
chain: MVLGKPQTDPTLEWFLSHCHIHKYPSKSTLIHQGEKAETLYYIVKGSVAVLIKDEEGKEMILSYLNQGDFIGELGLFEEGQERSAWVRAKTACEVAEISYKKFRQLIQVNPDILMRLSAQMARRLQVTSEKVGNLAFLDVTGRIAQTLLNLAKQPDAMTHPDGMQIKITRQEIGQIVGCSRETVGRILKMLEDQNLISAHGKTIVVYGTR
stoichiometry N [2]: 2
